The values below come from patent publication US7169759B1, “Tetrapeptide inhibitors of β-secretase” (Elan Pharmaceuticals, Inc., priority 1999, dated 2007).

Each structure is given as a SMILES string. *1 amine or outer side, *2 acyl side, *3 side chain or, on linkers, in order; H or OH if unused. Where a SMILES comes first, the peptide text is derived from it. [ ]: non-standard residue; d: D form. The star is where a group is joined. Sta = CC(C)C[C@H](N)[C@@H](O)CC(=O)O; X1 = CC(C)CC(N[*:1])C(O)CC(=O)[*:2]; Phg = N[CH](C(=O)O)c1ccccc1; Isovaleryl = CC(C)CC(=O)*; Boc = CC(C)(C)OC(=O)*

In general, IC50 refers to the concentration that inhibits the measured activity by half.

T1 sequence (P56817 46-501): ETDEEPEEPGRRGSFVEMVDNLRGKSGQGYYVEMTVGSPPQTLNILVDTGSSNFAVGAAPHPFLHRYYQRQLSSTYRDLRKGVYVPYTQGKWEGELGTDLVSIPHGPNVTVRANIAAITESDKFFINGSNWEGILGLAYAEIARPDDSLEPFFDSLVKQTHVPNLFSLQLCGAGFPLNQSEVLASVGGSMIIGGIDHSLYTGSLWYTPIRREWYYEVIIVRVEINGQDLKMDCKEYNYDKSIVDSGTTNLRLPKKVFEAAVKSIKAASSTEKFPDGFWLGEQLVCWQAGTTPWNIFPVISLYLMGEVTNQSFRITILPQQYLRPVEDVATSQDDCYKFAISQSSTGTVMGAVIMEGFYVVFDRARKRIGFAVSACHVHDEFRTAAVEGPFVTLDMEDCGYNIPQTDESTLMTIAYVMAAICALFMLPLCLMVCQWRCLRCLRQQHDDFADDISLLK

For one test, the target named is β-secretase (Homo sapiens, UniProt P56817). Kind of test: assays with β-secretase (pepstatin remark). The class given is biochemical.
Chain of β-secretase (P56817 46-501): as above
Settings: not given
On to `CC(C)CC(=O)N[C@H](C(=O)N[C@H](C(=O)N[C@@H](CC(C)C)[C@@H](O)CC(=O)N[C@@H](C)C(=O)N[C@@H](CC(C)C)[C@@H](O)CC(=O)O)C(C)C)C(C)C` [pepstatin] (Isovaleryl-VV[Sta]A[Sta]-OH), for which the “inhibitory activity in assays with β-secretase” value is on record as “no inhibitory activity”.

The next test addresses T1, Human brain β-Secretase (Homo sapiens, UniProt P56817).
T1 construct: Human brain β-Secretase from the concentrated HiQ pool prepared Jul; from tissue; host or cells: human brain
In words: MBP-C125 enzyme inhibition assay (ELISA detection of β-secretase cleavage of MBP-C125 substrate). Conditions: pH 4.5, 37° C., 90 minutes, highest concentration 200 μM, read-out: IC50 Group. The class given is biochemical. On the procedure:
Enzyme Inhibition Assay Purpose/Rationale:
The MBP-C125 assay, determines relative inhibition of β-secretase cleavage of an MPB-C125 substrate by the compounds assayed. Human brain β-Secretase from the concentrated HiQ pool prepared Jul. 16, 1997 in 0.20% Triton is used in the assay. Inhibition data was obtained from an ELISA which uses an anti-MBP capture antibody (on precoated and blocked 96-well high binding plates) followed by incubation with diluted enzyme reaction supernatant, incubation with an anti-SW192 specific biotinylated reporter antibody and incubation with streptavidin/alkaline phosphatase. Detection was effected by a fluorescent substrate signal on cleavage by the phosphatase. The ELISA only detected cleavage following Leu 596 at the substrate's Swedish APP 751 mutation site.
Compounds were diluted in a 1:1 dilution series to a six-point concentration curve (two wells per concentration) which took up one 96-plate row per compound tested.
Each of the test compounds was weighed out into a vial and DMSO was added to make up a 10 mM solution. To obtain a final compound concentration of 200 μM at the high point of a 6-point dilution curve, 100 μL of the 10 mM solution was added to well C1 of a 96-well V-bottom plate. Fifty μL of DMSO was added to odd wells of row C across the plate and 1:1 serial dilutions were made. 10 μL of each dilution was added to each of two wells on row C of a corresponding V-bottom plate to which 190 μL of 52 mM NaOAc/7.9% DMSO, pH 4.5 were pre-added. The NaOAc diluted compound plate was spun down to pellet precipitant and 20 μL/well was transferred to a corresponding flat-bottom plate to which 30 μL of ice-cold enzyme-substrate mixture (2.5 μL MBP-C125 substrate, 0.03 μL enzyme and 24.5 ice cold 0.09% TX100 per 30 μl) was added. The compound concentration in the final enzyme reaction was thus 50 times less than the starting concentration. The final reaction mixture of 200 μM compound for the highest curve point was in 5% DMSO, 20 mM NaAc, 0.06% TX100, at pH 4.5. The enzyme reaction was started by warming the plates to 37° C. After 90 minutes at 37° C., 200 μL/well cold specimen diluent was added to stop the reaction and 20 μL/well was transferred to a corresponding α-MBP coated ELISA plate, containing 80 μL/well specimen diluent. This reaction was incubated overnight at 4° C. and the ELISA was developed the next day using a 2 hr. incubation with α-192SW followed by Streptavidin-AP conjugate and flourescent substrate. The signal was read on a fluorescent plate reader.
On the technique in general: An ELISA detects its analyte on a solid surface through an enzyme-linked reagent.
As for `CSCCC(NC(=O)C(NC(=O)OC(C)(C)C)C(C)C)C(=O)NC(CC(C)C)C(O)CC(=O)NC(C(=O)NC(C)c1ccc(C(=O)O)cc1)C(C)C` (centres unmarked) [Example 31], the IC50 lay within 10 to 99 µM.
Same read-out and setting: the value for `CSCCC(NC(=O)C(NC(=O)OC(C)(C)C)C(C)C)C(=O)NC(CC(C)C)C(O)CC(=O)NC(C(=O)NC1CCC(C(=O)O)C(C(=O)O)C1)C(C)C` (centres unmarked) [Example 32] was less than 10 µM.
Still for that read-out and setting: next, `CSCCC(NC(=O)C(NC(=O)OC(C)(C)C)C(C)C)C(=O)NC(CC(C)C)C(O)CC(=O)NC(C(=O)NC(C(=O)O)c1ccccc1)C(C)C` (centres unmarked) [Example 35] (Boc-VM[X1]V[Phg]-OH; configuration not given here): 10 to 99 µM.
Same read-out and setting: the value for `CSCCC(NC(=O)C(NC(=O)OC(C)(C)C)C(C)C)C(=O)NC(CC(C)C)C(O)CC(=O)NC(C(=O)NCCc1ccc(O)c([N+](=O)[O-])c1)C(C)C` (centres unmarked) [Example 36] was less than 10 µM; that for `CC(=O)NC(C(=O)NC(C(=O)NC(Cc1ccccc1)C(O)CC(=O)NC(C(=O)NCc1ccc(C(=O)O)cc1)C(C)C)c1ccccc1)C(C)C` (centres unmarked) [Example 37] was less than 10 µM.
As to `CC(C)CC(NC(=O)C(NC(=O)C(NC(=O)OCc1ccccc1)C(C)C)c1ccccc1)C(O)CC(=O)NC(C(=O)NCc1ccc(C(=O)O)cc1)C(C)C` (centres unmarked) [Example 38], the IC50 was in the range of 10 to 99 µM.
On the same count and under the same terms, next, `CC(C)CC(NC(=O)C(NC(=O)C(NC(=O)OC(C)(C)C)C(C)C)c1ccccc1)C(O)CC(=O)NC(C(=O)NCc1ccc(C(=O)O)cc1)C(C)C` (centres unmarked) [Example 39]: 10 to 99 µM.
